Data as given in patent US20140377365A1, “SUSTAINED-RELEASE FORMULATION OF ROTIGOTINE” (MAP Pharmaceuticals, Inc., priority 2013, published 2014).

Assay: In situ rotigotine salt screening (precipitate formation in ethanol/HFA 227 solution formulation)
Format: physicochemical
Conditions: for Observation, 1 week at 5° C. / Observation, Immediate / Observation, 1 week at RT: 1 mg/mL rotigotine free base plus acid in 10% (w/w) ethanol in HFA 227; for Observation, 1 week at 5° C.: another week at 5° C. after 1 week at RT; for Observation, Immediate: immediately upon preparation; for Observation, 1 week at RT: stored 1 week at room temperature
Method: Rotigotine, bulk drug substance, was purchased from Chemagis (Perrigo API). A stock solution of rotigotine was prepared by dissolving rotigotine particles in ethanol at 10 mg/mL. With 1.5 mL rotigotine stock solution added to formulation bottles, each formulation bottle contained 15 mg rotigotine. For preparation of acid stock solutions, it was assumed that complete reaction or ion-pairing between rotigotine and acid. Based on the molecular weight and number of anions of each acid as listed in Table 1, acids stock solutions were prepared by dissolving the required amount in ethanol.
Each formulation bottle was filed with 1.5 mL of rotigotine stock solution and 1.0 ml, of acid stock solution. The formulation bottles (PET bottles) were then sealed with continuous valves and vortexed for 30 seconds to mix the solution well. Finally, 17.6 g of 1,1,1,2,3,3,3-heptafluoropropane (HFA227 (Mexichem)) to make a final volume of 15 mL of rotigotine formulation. All the bottles were hand shaken for 10 seconds.
All in situ salt screening samples were made as 1 mg/mL of rotigtine free base in 10% (w/w) ethanol in HFA 227. Acids corresponding to the salt forms in Table 1 were added according to the molar ratio with rotigotine for complete reaction. As 1 mg/mL was the minimal required dose at the time of experiment, all formulations were tested at this level to screen out non-solution salt formulations.
These were the rotigotine citrate, fumarate, succinate, sulfate, tartrate, xinafoate salt formulations. […] rotigotine salt formulations were immediately ruled out as the precipitate formation was not desired. All clear solution samples were stored at room temperature (RT) for 1 week. […] These were rotigotine acetate, benzoate and mesylate salt formulations. These 3 rotigotine salt formulations were also ruled out as precipitate formation is not desired. The rest of the samples remained as clear solutions (stable) at after another week at 5° C.

Molecule	Observation, 1 week at 5° C.	Observation, Immediate	Observation, 1 week at RT	Solution formulation at the minimum required concentration (1 mg/mL, 10% (w/w) ethanol in HFA 227)
rotigotine propionate	solution	solution	solution	–
Benzoate	–	solution	red precipitate	–
rotigotine maleate	solution	solution	solution	stayed in solution
rotigotine pamoate	solution	solution	solution	–
rotigotine palmitate	solution	solution	solution	–
Fumarate	–	white precipitate	–	–
rotigotine citrate	–	white precipitate	–	–
CC(O)C(=O)O.CCCN(CCc1cccs1)[C@H]1CCc2c(O)cccc2C1 [Lactate, rotigotine lactate]	solution	solution	solution	–
O=S(=O)(O)O [Sulfate]	–	white precipitate	–	–
rotigotine glycolate	solution	solution	solution	–
rotigotine stearate	solution	solution	solution	–
CC(=O)O.CCCN(CCc1cccs1)[C@H]1CCc2c(O)cccc2C1 [Acetate, rotigotine acetate]	–	solution	red precipitate	–
Tartrate	–	white precipitate	–	–
